Structures can show the parent of a compound that is named as a salt. Where two headings read alike, the source gives them in different places.
Experiments:
[1] = Acute toxicity in mice; details: mouse, in vivo
[2] = system: cardiovascular system; experiment: Effect on the cardiovascular system (side-effects); format: in vivo; details: comparison in words
Excerpt: Known tricyclic thymoleptics affect the cardiovascular and peripheral autonomic nervous systems causing a wide range of side-effects. Cardiac disturbances and varying degrees of hypotension occur rather frequently and may be very serious.

[3] = Antidepressant daily dose; format: in vivo; details: daily doses
Method: In comparison, daily doses of 200-300 mg of imipramine are recommended.

[4] = daily doses; cited from earlier work
[5] = system: 5HT-uptake; experiment: Antagonism of p-chloroamphetamine (PCA)-induced 5HT-depletion from rat brain (5HT-uptake inhibitory activity); format: in vivo; details: for ED50: rat brain
Excerpt: 5HT-uptake inhibitory activity
Antagonism of p-chloroamphetamine (PCA)-induced 5HT-depletion from rat brain: […]

Compound | LD50 ([1]; oral administration) | LD50 ([1]; sc, subcutaneous injection) | effect on the cardiovascular system compared with tricyclic thymoleptics [2] | daily dose active as an antidepressant [3] | recommended daily dose [4] | ED50 p.o., antagonism of PCA-induced 5HT-depletion ([5]; po, 3 h) | ED50 ([5]; po, p.o., test drugs administered 2 hours before PCA, read-out: ED50 p.o., antagonism of PCA-induced 5HT-depletion) | ED50 ([5]; sc, test drugs administered s.c. simultaneously with PCA, read-out: ED50 s.c., antagonism of PCA-induced 5HT-depletion)
Fc1ccc(C2CCNCC2COc2ccc3c(c2)OCO3)cc1 (single isomer, unassigned) [GF 74, (-)-α-4-(4-Fluorophenyl)-3-(1,3-benzdioxolyl-(3))-oxymethyl piperidine maleate] | 500 mg/kg | 845 mg/kg | affect the cardiovascular system less than do the most common tricyclic thymoleptics | 15 to 25 mg |  |  |  | 
CN(C)CCCN1c2ccccc2CCc2ccccc21 [Imipramine] |  |  |  |  | 200 to 300 mg | + | 44 mg/kg | 8 mg/kg

Source: US4007196A, “4-Phenylpiperidine compounds” (priority 1973, dated 1977)
